tested on: Phosphorylation of STAT6 in human A549 cells; experiment: Phosphorylated STAT6 (pSTAT6) flow cytometry assay in human A549 cells; type: cell-based; conditions: read-out: STAT6 IL4 pSTAT6 assay in A549 cells: Average IC50
Source text: Example 3. Phosphorylated STAT6 (pSTAT6) Flow Cytometry Assay in Human A549 Cells
Phosphorylation of STAT6 in human A549 cells was quantitatively measured using flow cytometry technology.

Structure (SMILES)	IC50 [nM]
COc1ccccc1-c1cc(C2=CCCN(C(=O)CCn3ccnn3)C2)c(F)c2[nH]c(C(=O)N3CCN(c4cc(C#N)ccc4OC)CC3)cc12 [Example I-356, 3-(4-(6-(1-(3-(1H-1,2,3-triazol-1-yl)propanoyl)-1,2,5,6-tetrahydropyridin-3-yl)-7-fluoro-4-(2-methoxyphenyl)-1H-indole-2-carbonyl)piperazin-1-yl)-4-methoxybenzonitrile]	< 100
COc1ccccc1-c1cc(C2=CCCN(C(=O)CCn3ccnn3)C2)c(F)c2[nH]c(C(=O)N3CCN(c4cc(F)cc(F)c4OC)CC3)cc12 [Example I-357]	< 100
COc1ccccc1-c1cc(C2=CCCN(C(=O)CCn3ccnn3)C2)c(F)c2[nH]c(C(=O)N3CCN(c4ncccc4OC(F)F)CC3)cc12 [Example I-358]	< 100
COc1cccc(N2CCN(C(=O)c3cc4c(-c5ccccc5OC)cc(C5=CCCN(C(=O)CCn6ccnn6)C5)c(F)c4[nH]3)CC2)n1 [Example I-359]	< 100
COC(=O)c1ccc(OC)c(N2CCN(C(=O)c3cc4c(-c5ccccc5OC)cc(C5=CCCN(C(=O)CCn6ccnn6)C5)c(F)c4[nH]3)CC2)n1 [Example I-360]	< 100
COc1ccccc1-c1cc(C2=CCCN(C(=O)CCn3ccnn3)C2)c(F)c2[nH]c(C(=O)N3CCN(c4ncccc4F)CC3)cc12 [Example I-361]	< 100
COc1ccccc1-c1cc(C2=CCCN(C(=O)CCn3ccnn3)C2)c(F)c2[nH]c(C(=O)N3CCN(c4nccc5cnccc45)CC3)cc12 [Example I-362]	< 100
COc1ccccc1-c1cc(C2=CCCN(C(=O)CCn3ccnn3)C2)c(F)c2[nH]c(C(=O)N3CCN(c4nccc5ccccc45)CC3)cc12 [Example I-363]	< 100
COc1ccccc1-c1cc(C2CCCN(C(=O)CCn3ccnn3)C2)c(F)c2[nH]c(C(=O)N3CCN(c4ncccc4OC4CC4)CC3)cc12 (centres unmarked) [Example I-364]	< 100
COc1ccccc1-c1cc(C2=CCCN(C(=O)CCn3ccnn3)C2)c(F)c2[nH]c(C(=O)N3CCN(c4ccncc4OC)CC3)cc12 [Example I-365]	< 100
COc1cnccc1-c1cc(C2=CCCN(C(=O)CCn3ccnn3)C2)c(F)c2[nH]c(C(=O)N3CCN(c4ncccc4OC)CC3)cc12 [Example I-366]	< 100
COc1ccccc1-c1cc(C2=CCCN(C(=O)CCn3ccnn3)C2)c(F)c2[nH]c(C(=O)N3CCN(c4c(F)cccc4OC)CC3)cc12 [Example I-367]	< 100
COc1ccccc1-c1cc(C2=CCCN(C(=O)CCn3ccnn3)C2)c(F)c2[nH]c(C(=O)N3CCN(c4ncc(Cl)cc4OC)CC3)cc12 [Example I-369]	< 100
COc1ccccc1-c1cc(C2=CCCN(C(=O)CCn3ccnn3)C2)c(F)c2[nH]c(C(=O)N3CCN(c4ncc(F)cc4OC)CC3)cc12 [Example I-370]	< 100
COc1cccnc1N1CCN(C(=O)c2cc3c(-c4cccc(F)c4F)cc(C4=CCCN(C(=O)CCn5ccnn5)C4)c(F)c3[nH]2)CC1 [Example I-371]	< 100
CN(C)C(=O)c1cc2cc(C3=CCCN(C(=O)C4Cc5c(N)cccc5CN4C=O)C3)ccc2o1 (centres unmarked) [Example I-372]	100 to 1000
C#Cc1cc(C2=CCCN(C(=O)CCn3ccnn3)C2)cc2cc(C(=O)N(C)C)oc12 [Example I-373, 5-(1-(3-(1H-1,2,3-triazol-1-yl)propanoyl)-1,2,5,6-tetrahydropyridin-3-yl)-7-ethynyl-N,N-dimethylbenzofuran-2-carboxamide]	100 to 1000
CN(C)C(=O)c1cc2c(F)c(C3=CCCN(C(=O)C4Cc5ccccc5CN4C=O)C3)ccc2o1 (centres unmarked) [Example I-374, 4-fluoro-5-(1-(2-formyl-1,2,3,4-tetrahydroisoquinoline-3-carbonyl)-1,2,5,6-tetrahydropyridin-3-yl)-N,N-dimethylbenzofuran-2-carboxamide]	< 100
COc1ccc(F)cc1-c1cc(C2=CCCN(C(=O)CCn3ccnn3)C2)c(F)c2[nH]c(C(=O)N3CCN(c4ncccc4OC)CC3)cc12 [Example I-395]	> 100000

Structure (SMILES)	IC50 [nM]
COc1cccnc1N1CCN(C(=O)c2cc3c(-c4ccc5ccccc5c4OC)cc(C4=CCCN(C(=O)CCn5ccnn5)C4)c(F)c3[nH]2)CC1 [Example I-396]	> 100000
COc1cccnc1N1CCN(C(=O)c2cc3c(-c4cccc5ccccc45)cc(C4=CCCN(C(=O)CCn5ccnn5)C4)c(F)c3[nH]2)CC1 [Example I-397]	> 100000
COc1cccnc1N1CCN(C(=O)c2cc3c(-c4cccc(F)c4OC)cc(C4=CCCN(C(=O)CCn5ccnn5)C4)c(F)c3[nH]2)CC1 [Example I-399]	> 100000
COc1ccncc1-c1cc(C2=CCCN(C(=O)CCn3ccnn3)C2)c(F)c2[nH]c(C(=O)N3CCN(c4ccccc4)CC3)cc12 [Example I-400]	> 100000
COc1ccccc1-c1cc(C2=CCCN(C(=O)CCn3ccnn3)C2)c(F)c2[nH]c(C(=O)N3CCN(c4cc5cc[nH]c5nc4C#N)CC3)cc12 [Example I-401]	> 100000
COc1cccnc1N1CCN(C(=O)c2cc3c(-c4cnc5ccccc5c4OC)cc(C4=CCCN(C(=O)CCn5ccnn5)C4)c(F)c3[nH]2)CC1 [Example I-402]	> 100000
COc1ccccc1N1CCN(C(=O)c2cc3c(-c4cnccc4OC(C)C)cc(C4=CCCN(C(=O)CCn5ccnn5)C4)c(F)c3[nH]2)CC1 [Example I-403]	> 100000
COc1ccccc1N1CCN(C(=O)c2cc3c(-c4cnccc4OC(C)(C)C)cc(C4=CCCN(C(=O)CCn5ccnn5)C4)c(F)c3[nH]2)CC1 [Example I-404]	> 100000
COc1ccccc1N1CCN(C(=O)c2cc3c(-c4cnccc4OCF)cc(C4=CCCN(C(=O)CCn5ccnn5)C4)c(F)c3[nH]2)CC1 [Example I-405]	> 100000
CCOc1ccncc1-c1cc(C2=CCCN(C(=O)CCn3ccnn3)C2)c(F)c2[nH]c(C(=O)N3CCN(c4ccccc4OC)CC3)cc12 [Example I-406]	> 100000
COc1cnccc1-c1cc(C2=CCCN(C(=O)CCn3ccnn3)C2)c(F)c2[nH]c(C(=O)N3CCN(c4ccccc4OC)CC3)cc12 [Example I-407]	> 100000
COc1cnccc1-c1cc(C2=CCCN(C(C)=O)C2)c(F)c2[nH]c(C(=O)N3CCN(c4ncccc4OC)CC3)cc12 [Example I-408]	> 100000
COc1ccncc1-c1cc(C2=CCCN(C(C)=O)C2)c(F)c2[nH]c(C(=O)N3CCN(c4ccccc4OC)CC3)cc12 [Example I-409]	> 100000
COc1cccnc1N1CCN(C(=O)c2cc3c(-c4cccnc4OC)cc(C4=CCCN(C(=O)CCn5ccnn5)C4)c(F)c3[nH]2)CC1 [Example I-410]	> 100000
COc1cccnc1N1CCN(C(=O)c2cc3c(-c4cccc(Cl)c4OC)cc(C4=CCCN(C(=O)CCn5ccnn5)C4)c(F)c3[nH]2)CC1 [Example I-411]	> 100000
CCOc1ccccc1-c1cc(C2=CCCN(C(=O)CCn3ccnn3)C2)c(F)c2[nH]c(C(=O)N3CCN(c4ncccc4OC)CC3)cc12 [Example I-412]	> 100000
COc1ccccc1-c1cc(C2=CCCN(C(=O)CCn3ccnn3)C2)c(F)c2[nH]c(C(=O)N3CCN(c4ncc(C5CC5)cc4OC4CC4)CC3)cc12 [Example I-413]	100 to 1000
COc1ccccc1-c1cc(C2=CCCN(C(=O)CCn3ccnn3)C2)c(F)c2[nH]c(C(=O)N3CCN(c4c(OC)cccc4Oc4ccccc4)CC3)cc12 [Example I-414]	100 to 1000
COc1ccccc1-c1cc(C2=CCCN(C(=O)CCn3ccnn3)C2)c(F)c2[nH]c(C(=O)N3CCN(c4nccc(C)c4OC)CC3)cc12 [Example I-415]	< 100
